Source: ChEMBL document CHEMBL1909046, “DrugMatrix in vitro pharmacology data”

Legend:
Cytochrome P450 2A6 = target: T1, Cytochrome P450 2A6 (Homo sapiens, UniProt P11509); details: bti-tn-5b1-4; also: in other assays of this panel Not Active means under 50% inhibition at 10 µM
T1 sequence (P11509 whole entry): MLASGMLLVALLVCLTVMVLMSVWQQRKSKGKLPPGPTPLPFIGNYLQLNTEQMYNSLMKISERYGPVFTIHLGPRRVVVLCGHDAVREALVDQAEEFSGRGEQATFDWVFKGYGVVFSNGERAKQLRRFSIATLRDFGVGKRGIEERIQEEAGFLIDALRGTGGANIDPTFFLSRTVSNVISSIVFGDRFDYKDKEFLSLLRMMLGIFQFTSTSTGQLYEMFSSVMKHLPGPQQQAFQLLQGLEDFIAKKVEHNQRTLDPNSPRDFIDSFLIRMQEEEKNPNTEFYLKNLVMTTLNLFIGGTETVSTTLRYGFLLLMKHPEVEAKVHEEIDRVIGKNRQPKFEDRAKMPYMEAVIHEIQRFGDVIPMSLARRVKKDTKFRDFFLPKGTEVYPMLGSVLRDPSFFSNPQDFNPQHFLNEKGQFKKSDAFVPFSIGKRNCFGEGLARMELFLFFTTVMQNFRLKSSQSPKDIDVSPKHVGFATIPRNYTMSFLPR

[1] = target: Platelet-activating factor receptor (Homo sapiens, UniProt P25105); type: tissue-based; also: in other assays of this panel Not Active means under 50% inhibition at 10 µM
Platelet-activating factor receptor, sequence (P25105 whole entry): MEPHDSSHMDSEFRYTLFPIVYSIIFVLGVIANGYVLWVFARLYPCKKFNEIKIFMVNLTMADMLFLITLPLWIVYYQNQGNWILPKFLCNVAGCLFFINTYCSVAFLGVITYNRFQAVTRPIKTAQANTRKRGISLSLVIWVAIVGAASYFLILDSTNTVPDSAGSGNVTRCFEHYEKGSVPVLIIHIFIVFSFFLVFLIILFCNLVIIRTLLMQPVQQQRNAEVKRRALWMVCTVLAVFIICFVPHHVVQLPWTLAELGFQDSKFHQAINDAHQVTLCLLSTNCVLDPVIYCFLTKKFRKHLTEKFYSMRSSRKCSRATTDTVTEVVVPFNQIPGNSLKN

[2] = DRUGMATRIX: Atrial Natriuretic Factor (ANF) radioligand binding (ligand: [125I] ANF (rat)); type: cell membranes, Cavia porcellus, Dunkin-Hartley, Adrenal gland, Membrane; details: Not Active = under 50% inhibition at 10 µM
[3] = DRUGMATRIX: Leukotriene, BLT (LTB4) radioligand binding (ligand: [3H]LTB4); type: cell membranes, Membrane; details: u-937; Not Active = under 50% inhibition at 10 µM
[4] = target: T2, Muscarinic acetylcholine receptor M4 (Homo sapiens, UniProt P08173); type: cell membranes, CHO-K1, Membrane; details: cho-k1; also: in other assays of this panel Not Active means under 50% inhibition at 10 µM
T2 sequence (P08173 whole entry): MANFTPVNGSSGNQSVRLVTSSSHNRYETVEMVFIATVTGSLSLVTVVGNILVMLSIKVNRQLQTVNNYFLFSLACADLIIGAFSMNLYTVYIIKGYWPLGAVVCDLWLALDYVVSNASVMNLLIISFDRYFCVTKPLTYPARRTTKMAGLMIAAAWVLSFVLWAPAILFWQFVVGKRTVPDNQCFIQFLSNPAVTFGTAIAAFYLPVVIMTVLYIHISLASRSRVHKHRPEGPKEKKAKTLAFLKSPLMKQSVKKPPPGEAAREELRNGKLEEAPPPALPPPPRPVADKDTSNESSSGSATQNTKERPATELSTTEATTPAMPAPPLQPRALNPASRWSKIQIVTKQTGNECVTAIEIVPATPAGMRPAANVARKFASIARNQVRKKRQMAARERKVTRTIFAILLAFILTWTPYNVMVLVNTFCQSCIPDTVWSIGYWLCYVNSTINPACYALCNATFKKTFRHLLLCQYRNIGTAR

[5] = target: T3, 5-hydroxytryptamine receptor 2C (Homo sapiens, UniProt P28335); experiment: DRUGMATRIX: Serotonin (5-Hydroxytryptamine) 5-HT2C radioligand binding (ligand: [3H] Mesulergine); type: cell membranes, CHO-K1, Membrane; details: cho-k1; Not Active = under 50% inhibition at 10 µM
T3 sequence (P28335 whole entry): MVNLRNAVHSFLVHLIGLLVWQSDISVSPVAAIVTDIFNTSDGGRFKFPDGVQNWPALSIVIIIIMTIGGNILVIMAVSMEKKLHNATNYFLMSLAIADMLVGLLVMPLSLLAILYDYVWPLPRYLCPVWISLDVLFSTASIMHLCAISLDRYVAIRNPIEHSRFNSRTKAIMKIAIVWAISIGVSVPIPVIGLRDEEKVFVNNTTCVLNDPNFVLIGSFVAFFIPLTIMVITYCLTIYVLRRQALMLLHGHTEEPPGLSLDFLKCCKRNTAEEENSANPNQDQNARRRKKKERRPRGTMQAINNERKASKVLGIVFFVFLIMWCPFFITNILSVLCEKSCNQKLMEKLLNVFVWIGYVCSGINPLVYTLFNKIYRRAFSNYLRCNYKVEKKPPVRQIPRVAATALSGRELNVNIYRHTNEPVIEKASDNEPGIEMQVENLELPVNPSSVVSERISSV

Cytochrome P450 2D6 = Cytochrome P450 2D6 (Homo sapiens, UniProt P10635); details: bti-tn-5b1-4; also: in other assays of this panel Not Active means under 50% inhibition at 10 µM
Cytochrome P450 2D6, sequence (P10635 whole entry): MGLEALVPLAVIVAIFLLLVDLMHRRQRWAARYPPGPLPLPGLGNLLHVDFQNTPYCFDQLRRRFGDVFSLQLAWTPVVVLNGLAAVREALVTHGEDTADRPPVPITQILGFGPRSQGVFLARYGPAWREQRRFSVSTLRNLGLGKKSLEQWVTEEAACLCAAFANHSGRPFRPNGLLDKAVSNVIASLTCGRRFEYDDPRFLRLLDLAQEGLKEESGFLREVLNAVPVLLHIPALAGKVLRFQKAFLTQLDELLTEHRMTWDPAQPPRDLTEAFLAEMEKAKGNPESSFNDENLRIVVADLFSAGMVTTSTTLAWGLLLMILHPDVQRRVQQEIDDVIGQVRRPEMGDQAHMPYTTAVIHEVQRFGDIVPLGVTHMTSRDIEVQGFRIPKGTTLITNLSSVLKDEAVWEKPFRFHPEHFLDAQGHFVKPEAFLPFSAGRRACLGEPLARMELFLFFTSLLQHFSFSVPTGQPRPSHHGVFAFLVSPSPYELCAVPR

O=C(N/N=C/c1ccc([N+](=O)[O-])o1)c1cc([N+](=O)[O-])cc([N+](=O)[O-])c1O [NIFURSOL]
Not Active: IC50 (Cytochrome P450 2A6) | Ki (Cytochrome P450 2A6) | IC50 [1] | IC50 [2] | Ki [2] | IC50 [3] | Ki [3] | IC50 [4] | IC50 [5] | IC50 (Cytochrome P450 2D6) | Ki (Cytochrome P450 2D6)

COC(=O)Nc1nc2ccc(C(=O)c3cccs3)cc2[nH]1 [NOCODAZOLE]
Not Active: IC50 (Cytochrome P450 2A6) | Ki (Cytochrome P450 2A6) | IC50 [1] | IC50 [2] | Ki [2] | IC50 [3] | Ki [3] | IC50 [4] | IC50 [5] | IC50 (Cytochrome P450 2D6) | Ki (Cytochrome P450 2D6)

C#CC1(O)CC[C@H]2[C@@H]3CCC4=CC(=O)CC[C@@H]4[C@H]3CC[C@@]21CC (stereo partly specified) [NORGESTREL]
Not Active: IC50 (Cytochrome P450 2A6) | Ki (Cytochrome P450 2A6) | IC50 [1] | IC50 [2] | Ki [2] | IC50 [3] | Ki [3] | IC50 [4] | IC50 [5] | IC50 (Cytochrome P450 2D6) | Ki (Cytochrome P450 2D6)

COC(=O)Nc1nc2ccc([S+]([O-])c3ccccc3)cc2[nH]1 (stereo unspecified) [OXFENDAZOLE]
Not Active: IC50 (Cytochrome P450 2A6) | Ki (Cytochrome P450 2A6) | IC50 [1] | IC50 [2] | Ki [2] | IC50 [3] | Ki [3] | IC50 [4] | IC50 [5] | IC50 (Cytochrome P450 2D6) | Ki (Cytochrome P450 2D6)

CC(=O)O[C@H]1C(=O)[C@@]2(C)[C@H]([C@H](OC(=O)c3ccccc3)[C@]3(O)C[C@H](OC(=O)[C@H](O)[C@@H](NC(=O)c4ccccc4)c4ccccc4)C(C)=C1C3(C)C)[C@]1(OC(C)=O)CO[C@@H]1C[C@@H]2O [PACLITAXEL]
Not Active: IC50 (Cytochrome P450 2A6) | Ki (Cytochrome P450 2A6) | IC50 [1] | IC50 [2] | Ki [2] | IC50 [3] | Ki [3] | IC50 [4] | IC50 [5] | IC50 (Cytochrome P450 2D6) | Ki (Cytochrome P450 2D6)

C[n+]1ccc(-c2cc[n+](C)cc2)cc1.[Cl-].[Cl-] [PARAQUAT DICHLORIDE]
Not Active: IC50 (Cytochrome P450 2A6) | Ki (Cytochrome P450 2A6) | IC50 [1] | IC50 [2] | Ki [2] | IC50 [3] | Ki [3] | IC50 [4] | IC50 [5] | IC50 (Cytochrome P450 2D6) | Ki (Cytochrome P450 2D6)

CCn1cc(C(=O)O)c(=O)c2cnc(N3CCCC3)nc21 [PIROMIDIC ACID]
Not Active: IC50 (Cytochrome P450 2A6) | Ki (Cytochrome P450 2A6) | IC50 [1] | IC50 [2] | Ki [2] | IC50 [3] | Ki [3] | IC50 [4] | IC50 [5] | IC50 (Cytochrome P450 2D6) | Ki (Cytochrome P450 2D6)

C[n+]1ccccc1/C=N/O.[Cl-] [PRALIDOXIME CHLORIDE]
Not Active: IC50 (Cytochrome P450 2A6) | Ki (Cytochrome P450 2A6) | IC50 [1] | IC50 [2] | Ki [2] | IC50 [3] | Ki [3] | IC50 [4] | IC50 [5] | IC50 (Cytochrome P450 2D6) | Ki (Cytochrome P450 2D6)

COc1cc2nc(N3CCN(C(=O)c4ccco4)CC3)nc(N)c2cc1OC [PRAZOSIN]
Not Active: IC50 (Cytochrome P450 2A6) | Ki (Cytochrome P450 2A6) | IC50 [1] | IC50 [2] | Ki [2] | IC50 [3] | Ki [3] | IC50 [4] | IC50 [5] | IC50 (Cytochrome P450 2D6) | Ki (Cytochrome P450 2D6)

C[C@]12C=CC(=O)C=C1CC[C@@H]1[C@@H]2[C@@H](O)C[C@@]2(C)[C@H]1CC[C@]2(O)C(=O)CO [PREDNISOLONE]
Not Active: IC50 (Cytochrome P450 2A6) | Ki (Cytochrome P450 2A6) | IC50 [1] | IC50 [2] | Ki [2] | IC50 [3] | Ki [3] | IC50 [4] | IC50 [5] | IC50 (Cytochrome P450 2D6) | Ki (Cytochrome P450 2D6)

CC(=O)[C@H]1[C@H](C#N)C[C@H]2[C@@H]3CC=C4C[C@@H](O)CC[C@]4(C)[C@H]3CC[C@@]21C [PREGNENOLONE CARBONITRILE]
Not Active: IC50 (Cytochrome P450 2A6) | Ki (Cytochrome P450 2A6) | IC50 [1] | IC50 [2] | Ki [2] | IC50 [3] | Ki [3] | IC50 [4] | IC50 [5] | IC50 (Cytochrome P450 2D6) | Ki (Cytochrome P450 2D6)

CCCN(CCC)S(=O)(=O)c1ccc(C(=O)O)cc1 [PROBENECID]
Not Active: IC50 (Cytochrome P450 2A6) | Ki (Cytochrome P450 2A6) | IC50 [1] | IC50 [2] | Ki [2] | IC50 [3] | Ki [3] | IC50 [4] | IC50 [5] | IC50 (Cytochrome P450 2D6) | Ki (Cytochrome P450 2D6)

CCCOc1ccc(C(=O)OCCN(CC)CC)cc1N [PROPARACAINE]
Not Active: IC50 (Cytochrome P450 2A6) | Ki (Cytochrome P450 2A6) | IC50 [1] | IC50 [2] | Ki [2] | IC50 [3] | Ki [3] | IC50 [4] | IC50 [5] | IC50 (Cytochrome P450 2D6) | Ki (Cytochrome P450 2D6)

C[C@@H]1O[C@@H](O[C@@H]2C=C3CC[C@@H]4[C@H](CC[C@]5(C)[C@@H](c6ccc(=O)oc6)CC[C@]45O)[C@@]3(C)CC2)[C@H](O)[C@H](O)[C@H]1O [PROSCILLARIDIN]
Not Active: IC50 (Cytochrome P450 2A6) | Ki (Cytochrome P450 2A6) | IC50 [1] | IC50 [2] | Ki [2] | IC50 [3] | Ki [3] | IC50 [4] | IC50 [5] | IC50 (Cytochrome P450 2D6) | Ki (Cytochrome P450 2D6)

Oc1cccc(O)c1O [PYROGALLOL]
Not Active: IC50 (Cytochrome P450 2A6) | Ki (Cytochrome P450 2A6) | IC50 [1] | IC50 [2] | Ki [2] | IC50 [3] | Ki [3] | IC50 [4] | IC50 [5] | IC50 (Cytochrome P450 2D6) | Ki (Cytochrome P450 2D6)

AURANOFIN
Not Active: IC50 (Cytochrome P450 2A6) | Ki (Cytochrome P450 2A6) | IC50 [1] | Ki [1] | IC50 [2] | Ki [2] | IC50 [3] | Ki [3] | IC50 [4] | Ki [4] | IC50 [5] | Ki [5] | IC50 (Cytochrome P450 2D6) | Ki (Cytochrome P450 2D6)

GADOPENTETATE DIMEGLUMINE
Not Active: IC50 (Cytochrome P450 2A6) | Ki (Cytochrome P450 2A6) | IC50 [1] | Ki [1] | IC50 [2] | Ki [2] | IC50 [3] | Ki [3] | IC50 [4] | Ki [4] | IC50 [5] | Ki [5] | IC50 (Cytochrome P450 2D6) | Ki (Cytochrome P450 2D6)

GENTAMICIN
Not Active: IC50 (Cytochrome P450 2A6) | Ki (Cytochrome P450 2A6) | IC50 [1] | Ki [1] | IC50 [2] | Ki [2] | IC50 [3] | Ki [3] | IC50 [4] | Ki [4] | IC50 [5] | Ki [5] | IC50 (Cytochrome P450 2D6) | Ki (Cytochrome P450 2D6)

GRAMICIDIN
Not Active: IC50 (Cytochrome P450 2A6) | Ki (Cytochrome P450 2A6) | IC50 [1] | Ki [1] | IC50 [2] | Ki [2] | IC50 [3] | Ki [3] | IC50 [4] | Ki [4] | IC50 [5] | Ki [5] | IC50 (Cytochrome P450 2D6) | Ki (Cytochrome P450 2D6)
